Paper PMC3842960, “Natural Stilbenoids Isolated from Grapevine Exhibiting Inhibitory Effects against HIV-1 Integrase and Eukaryote MOS1 Transposase In Vitro Activities” (PLoS ONE, 2013)

What was measured:
[1] = target: T1, Mos1 transposase (MOS1) (Drosophila mauritiana, UniProt Q7JQ07); test: MOS1 in vitro excision assay; format: biochemical, D. mauritiana; settings: for inhibition at 25 µM: DMSO control as reference, read-out: inhibition of in vitro excision reaction; for IC50: concentration range, sigmoid dose-response fit
T1 construct: involving the full-length Mos1 transposase (MOS1) was recently solved; made in house
T1 sequence (Q7JQ07 whole entry): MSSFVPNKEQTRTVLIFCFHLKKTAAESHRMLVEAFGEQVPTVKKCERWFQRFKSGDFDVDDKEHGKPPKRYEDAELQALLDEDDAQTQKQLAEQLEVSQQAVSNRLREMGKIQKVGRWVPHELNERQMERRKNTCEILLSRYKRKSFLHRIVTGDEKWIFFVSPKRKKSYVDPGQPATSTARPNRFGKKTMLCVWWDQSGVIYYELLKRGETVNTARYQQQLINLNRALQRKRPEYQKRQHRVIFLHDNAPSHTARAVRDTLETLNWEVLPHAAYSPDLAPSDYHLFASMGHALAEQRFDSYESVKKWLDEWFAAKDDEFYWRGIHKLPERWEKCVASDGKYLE
Procedure: Basic excision reaction mixtures contained 10 mM Tris-HCl (pH 9), 50 mM NaCl, 20 mM MgCl2, 0.5 mM EDTA, 0.5 mM DTT, 100 ng BSA, 600 ng of super-coiled pBC-3T3, and 80 nM MBP-MOS1 (added last) in a volume of 20 µl. Molecules (25 or 10 µM, as specified) or DMSO (2%) were added to the reaction mixtures before the transposase. The reactions were allowed to proceed at 30°C for 30 min before 2 µl of stop solution (loading buffer) were added. The reaction mixtures were then incubated at 65°C for 10 min. Each reaction was analysed by overnight electrophoresis at 2.7 V/cm on a TAE-buffered 1% agarose gel with ethidium bromide (0.3 mg/ml). After electrophoresis, the gel was photographed on a transilluminator. ImageGauge 4.22 software (Fujifilm) was used to quantify the bands. Each condition was tested at least twice.
The ability of the selected molecules to inhibit excision was tested in vitro using the pBC-3T3 plasmid as the transposon donor. MOS1 triggers the excision of the pseudo-Mos1 from the plasmid producing two linear DNA fragments, the transposon and the plasmid backbone, together with intermediate products (open circle plasmids which contained single strand nicks and linear plasmids which contained a double strand nick at one ITR). After excision, the transposon could be reintegrated, making it difficult to detect in electrophoresis. The activity of the molecules was measured by quantifying the plasmid backbone, the end product of the reaction. The assays were performed with final concentrations of 25 and 10 µM molecules. Controls correspond to assays performed without molecule but with DMSO. […] Reactions were performed at least twice for each selected molecules (leachianol G, leachianol F, quadrangularin A, hopeaphenol, vitisin B and pallidol) and the excision activity is reported in figure 7B . […] The six selected molecules were then tested for the integration step of Mos1 transposition.

[2] = target: HIV-1 IN (Human immunodeficiency virus type 1 group M subtype B, UniProt P04585); test: HIV-1 IN in vitro concerted integration assay (processed or unprocessed donor DNA)
[3] = target: T1, Mos1 transposase (MOS1); test: MOS1 in vitro transposition assay (genetic hop experiment); format: biochemical, D. mauritiana
Procedure: The wild type Mos1 transposase (MOS1: 345 amino acids) was produced and purified as a fusion protein linked to the maltose-binding protein by using the pMal-c2 system (New England Biolabs) and following the manufacturer's instructions.
In vitro transposition reactions were performed using pBC-3T3 as both the donor DNA and the target, as previously described. Briefly, the basic transposition reaction mixtures contained 10 mM Tris-HCl (pH 9), 50 mM NaCl, 20 mM MgCl2, 0.5 mM EDTA, 5% glycerol, 5 ng/ml BSA, 600 ng pBC-3T3, and 80 nM purified MBP-MOS1 (added last) in a volume of 20 µl. Inhibitors (25 or 10 µM, as specified) or DMSO (2%) were added to the reaction mixtures before the transposase. The reactions were allowed to proceed for 30 min at 30°C. After phenol-chloroform extraction and ethanol precipitation, 10% of the reaction mixture was transformed in electro-competent JM109 E. coli (2 mm cuvette, 1.5 kV in a MicroPulser™BioRad). Appropriate dilutions of each reaction mixture were plated on LB-tetracycline (12.5 µg/ml) agar and LB-chloramphenicol (80 µg/ml) agar to score the transposition rate. The transposition rate was the number of Tet^R colonies divided by the number of Chloram^R plus Tet^R colonies. Each condition was done at least three times in independent experiments.
To identify the natural stilbenes active on MOS1, the 17 molecules were tested using an in vitro genetic “hop” experiment, which is the most sensitive test available as yet. Purified MOS1 was incubated with the pBC-3T3 plasmid, which was used both as the transposon donor and the target plasmid. This plasmid contains the pBR322 tetracycline resistance gene (without promoter) framed by two Mos1 ITRs. This reconstitutes a pseudo-Mos1 element named 3T3. We took advantage of the fact that the cat gene (present in the pBC backbone) is a hotspot for Mos1 integration. […] Transposition events were recovered by bacterial transformation with selection for tetracycline resistance, as a gain-of-function landmark for transposition. […] Controls correspond to assays performed without molecule but with DMSO, which is routinely used as the solvent. […] To confirm the efficiency of the six molecules, they were similarly assayed at 10 µM ( figure 6B ). Since they appeared to be still active at 10 µM, they were further characterized in order to identify the targeted step of the transposition cycle.

## Oc1ccc([C@@H]2c3c(O)cc(O)cc3[C@H]3[C@H](c4ccc(O)cc4)c4c(O)cc(O)cc4[C@@H]23)cc1 [pallidol]
[1]
  inhibition at 25 µM: > 50%
  IC50: 8 µM
[2]; increasing concentrations
  inhibition of concerted integration from processed and unprocessed donor: inhibited both activities
[3]; 10 µM
  activity against MOS1 in transposition assay: still active
[3]; 25 µM
  activity against MOS1 in transposition assay: active against MOS1

## Oc1ccc([C@@H]2c3c(O)cc(O)cc3[C@H]3c4c(cc(O)cc4C2C2c4cc(O)cc5c4[C@H](c4cc(O)cc(O)c4[C@H]2c2ccc(O)cc2)[C@@H](c2ccc(O)cc2)O5)O[C@@H]3c2ccc(O)cc2)cc1 (stereo partly shown) [hopeaphenol]
[1]
  inhibition at 25 µM: > 50%
  IC50: 8.5 µM
[2]; read-out: inhibition of concerted integration
  inhibition at 10 µM: < 5%
[3]; 10 µM
  activity against MOS1 in transposition assay: still active
[3]; 25 µM
  activity against MOS1 in transposition assay: active against MOS1
